# Measured values from patent US5767269A, “Processes for the preparation of low-affinity, low molecular weight heparins useful as antithrombotics” (Hamilton Civic Hospitals Research Development Inc., priority 1996, dated 1998).
# Assays:
# surface-bound thrombin = test: Extracorporeal recirculation circuit: clotting of the filter in recalcified human whole blood; conditions: concentrations which prolong the thrombin clotting time to over 500 seconds (10 to 20 U/ml)
# Method: The circuit consists of Tygon tubing (3/16"×1/16") connected to a 40 micron transfusion filter (Pall SQ40S). The system includes 3-way stopcocks for blood sampling. A surgical pressure transducer connected to a pressure recorder (Hewlett-Packard) is connected in line with the filter so that clotting of the filter causes a steady increase in pressure. Citrated whole blood taken from normal, healthy volunteers is used. The circuit is filled with 50 ml of whole blood placed in a reservoir and kept in a waterbath maintained at 37° C. The anticoagulant to be tested is added to the circuit, clotting is initiated by recalcification (0.8 ml of 1.0M CaCl2), and the blood is recirculated at a constant flow rate through the thrombogenic surface using a roller head pump (Cole-Parmer MFLX modular drive with a large F/6 roll head cartridge). Thrombosis of the filter is monitored by a change in pressure in a gauge inserted into the circuit, proximal to the filter. […]
# The inactivation of surface-bound thrombin and fluid-phase thrombin can be measured simultaneously using this system. More particularly, inactivation of surface-bound thrombin is quantified by recording the delay in clotting of the circuit. […] Inactivation of fluid phase thrombin is quantified by recording the thrombin clotting time of plasma prepared from blood removed from the circuit just before recalcification.
# fluid-phase thrombin = test: Thrombin clotting time of plasma from blood of the extracorporeal circuit; assay type: biochemical, human
# Source text: The inactivation of surface-bound thrombin and fluid-phase thrombin can be measured simultaneously using this system. More particularly, inactivation of surface-bound thrombin is quantified by recording the delay in clotting of the circuit. This delay is contributed to, albeit to a lesser extent, by the inactivating effect of the anticoagulant on fluid phase thrombin, whose generation is potentiated by the clot-bound thrombin. Inactivation of fluid phase thrombin is quantified by recording the thrombin clotting time of plasma prepared from blood removed from the circuit just before recalcification.
substance,measurement,setting,value
Hirudin,prevention of thrombosis in the circuit compared with LA-LMWH,surface-bound thrombin,much less effective at preventing thrombosis in the circuit
same,TCT,fluid-phase thrombin; 10 U/mL (Table 3),> 500 s
same,TCT,fluid-phase thrombin; 20 U/ml (Table 3),> 500 s
